# Assay results published in patent US8987449B2, “Medicine for treating ischemic brain injury and its sequelae, and preparation method thereof” (Haimin Lei, priority 2011, dated 2015).
# Key:
# [1] = test system: chicken chorioallantoic membrane (CAM); assay: Effect of LQC-T on CAM angiogenesis (CAM method, vessel count); format: in vivo; settings: 20 μg/chicken embryo; for small vessel angiogenesis of CAM model, Medicine group (X ± S): 72 h incubation, number of small vessels, blank group 8.67 ± 1.03
# Protocol: Embryonated chicken eggs of Lohmann of German, egg weight 50-60 g (embryo experiment center of Chinese Agriculture University)
# LQC-T (1-6) (prepared by the methods of examples 2-7), wherein the purity was ≧98%, determined by high performance liquid chromatography (HPLC), meeting the requirements of the experiment. The powder was carefully sealed and preserved at 4° C.
# Aseptic gelatin sponge, which was made into a wafer having a diameter of 5 mm by a hole-puncher in advance, was used as sample carrier. The prepared LQC-T series compounds were added according to 20 μg/chicken embryo in an aseptic environment. The 0.9% physiological saline was used in a blank group. The samples were air-dried in an aseptic environment.
# A hatching egg after disinfection was put into a 37° C. incubation box with air sac upward until the seventh day of incubation. The egg embryo was disinfected using alcohol at a super clean bench, and then a small hole was drilled at the top of the egg embryo using a dental drill, and the nearby egg shell and shell membrane were removed carefully to form the opening with the size of about 1.2 cm×1.2 cm. After spotting the location for applying the sample, the air sac was broken with injection needle at the interface between air sac and the yolk and then 1-2 drops of aseptic physiological saline was injected so that the air sac membrane was separated from CAM membrane. Then the upper air sac membrane was slightly removed with a nipper to expose the lower CAM membrane.
# The medicine-containing carrier was softly put by a nipper at the locations of CAM and yolk cyst membrane with fewer vessels, the opening was then sealed with aseptic transparent tape and incubation was continued for another 72 h.
# After the incubation, the transparent tape blocking the chicken embryo air sac was removed with a nipper. The liquid of equal-volumetrically mixed methanol/acetone 1-2 ml was added and fixed at room temperature for 10 min. The CAM membrane was carefully removed and put it onto a slide. Then it was observed and a photograph was taken. The effect of the compounds on angiogenesis was evaluated by the count analytic method using the numbers of great vessels, medium vessels and small vessels arranged radially around by the carrier.
# All the data were statistically analyzed using SPSS11.0 software pack. The difference between the administration group and the blank group was given through one-way variance analysis. P<0.05 had statistical significance.
# [2] = test system: rat primary cortical neurons; assay: Proliferation of primary neuronal cells by MTT and morphology observation; format: cell-based; settings: 60 μM; normal neurons; control 0.7567 ± 0.1109
# Protocol: SD pregnant rats: pregnant for 16-18 d, certificate number: SCXK (Jing) 2006-0009, provided by BeiJing Vital River Laboratories.
# LQC-T4 (prepared by the method of example 5), the purity was ≧98%, determined by high performance liquid chromatography (HPLC), which met the requirement of the experiment. The powder was carefully sealed and preserved at 4° C. The prepared LQC-T4 was dissolved using dimethyl sulfoxide and made into […] storing liquid for use.
# Referring to the document [HongQingtao, TangYipeng, Neurons of cerebral cortex of newborn rats in in vitro primary culture, Chinese Journal of Neuroanatomy, 1994, 10(3):259-262], the pregnant 16-18 d SD rat was executed by dislocation. The fetal rat was taken out in an aseptic environment, the meninges and blood steak were stripped, the cortex was separated and cut into 1 mm^3 tissue block (all carried out on ice). The tissue block was digested at 37[…] with 0.1% pancreatic enzyme-0.02% EDTA for 20 min. Digesting was stopped using DMEM containing fetal calf serum and the number of the cells was adjusted to 5×10^5 cells ml^−1. The resultant cells were inoculated into a 96 well plate treated by 0.001% polylysine and the plate was put in a 37° C. 5% CO2 incubation box to be cultured. The cultivation liquid was changed (totally) after 48 h and add adenine arabinoside was added (final concentration is 5 μM) to inhibit the excessive proliferation of non-neurons. The cultivation liquid was changed after 48 h with fresh cultivation liquid and culture was continued. And the cultivation liquid was changed every 3 days afterward.
# The cultivation liquid was sucked away on the eighth day of neuron culture. DMEM culture-medium containing 0.15% DMSO was added to the blank group, while 60 μM, 30 μM, 15 μM LQC-T4, 60 μM tetramethylpyrazine and 60 μM vanillic acid were respectively added to the administration group. Ten parallel wells were set as a group. And they were put into a 37° C., 5% CO2 incubation box to continue culturing for 24 h.
# 5 mg/ml MTT 20 μl was added to each well at the time of 4 h before the experiment ended and the cultivation liquid was sucked away. DMSO 200 μl was added to each well. When the purple particles were completely dissolved, the enzyme-linked immune assay was used to measure the optical density at 540 nm.
# (§1) The SAS 8.2 statistical software was used to carry out the one-way ANOVA variance analysis and the difference among the groups were compared by t-test.
# [3] = test system: ICR mice; assay: Buccal respiration duration of mice after head cutting (4° C. icy water swimming model); format: in vivo, mouse; settings: 80 mg/kg intragastrically once a day for 10 days, control 32.45 ± 5.49
# Protocol: ICR mice, half female and half male, weighing 19-21 g, certificate No.: SCXK (Jing) 2006-0009, provided by BeiJing Vital River Laboratories.
# LQC-T4, tetramethylpyrazine (TMP), vanillic acid, Nimodipine (ShanDong XinHua Pharmaceutical CO., Ltd, batch No.: 0908164)
# 160 male ICR mice were divided into 8 groups randomly by weight, each of which contained 20 mice, wherein 0.5% CMC-NA (0.2 ml·10 g^−1) was administrated intragastrically to the blank control group; 6.7 mg·kg^−1 Nimodipine (0.2 ml·10 g^−1) was administrated intragastrically to the positive control group; 100 mg·kg^−1 TMP (0.2 ml·10 g^−1) was administrated intragastrically to the TMP group, three different dosage of 200 mg·kg^−1, 100 mg·kg^−1, 50 mg·kg^−1 were administrated intragastrically to the LQC-T4 (0.2 ml·10 g^−1) group relatively, and 125 mg·kg^−1 TMP+80 mg·kg^−1 vanillitc acid (0.2 ml·10 g^−1) was administrated intragastrically respectively. The medicines were continuously administrated once a day for 10 days.
# The literature was referred to: [LiuZhenquan, SunHui, Xuqiuping, etc., Experimental Study on the Brain-Protective Effect of the Effective Fraction of Naoxin Formula in the Mouse Model of with Load-Bearing Swimming in Cold Water, Journal of Beijing University of Traditional Chinese Medicine [J], 2004, 27(4): 54-56] and the method recorded therein was improved. The head was rapidly cut with a scissor at post mortem when the mouse swam in 4° C. icy water for 3 min after the final administration. After head being cut, the buccal respiration duration of mouse was recorded.
# as §1
compound,measurement,setting,value
Cc1nc(C)c(COC(=O)/C=C/c2ccc(OCc3nc(C)c(C)nc3C)c(OCc3nc(C)c(C)nc3C)c2)nc1C [LQC-T6],"small vessel angiogenesis of CAM model, Medicine group (X ± S)",[1],8.83 ± 3.71
"(3,5,6-trimethylpyrazin-2-yl)methyl 4-hydroxy-3-methoxybenzoate [LQC-T1]","small vessel angiogenesis of CAM model, Medicine group (X ± S)",[1],12.7 ± 2.73
"Cc1nc(C)c(COc2ccc(C=O)cc2OCc2nc(C)c(C)nc2C)nc1C [LQC-T5, 3,4-bis((3,5,6-trimethylpyrazine-2-yl)methoxy)benzaldehyde]","small vessel angiogenesis of CAM model, Medicine group (X ± S)",[1],14.17 ± 5.19
"Cc1nc(C)c(COC(=O)c2ccc(OCc3nc(C)c(C)nc3C)c(OCc3nc(C)c(C)nc3C)c2)nc1C [LQC-T2, (3,5,6-trimethylpyrazine-2-yl)methyl-3,4-bis((3,5,6-trimethylpyrazine-2-yl)methoxy) benzoate]","small vessel angiogenesis of CAM model, Medicine group (X ± S)",[1],14.17 ± 1.47
same,effect on growth of new (small) vessels compared with the blank group,[1]; result in words,significant promoting effect
"COc1cc(C(=O)O)ccc1O [Vanillic acid, vanillic acid, reference compound]","MTT(A540), 24 h after the administration",[2],0.8820 ± 0.1469
same,respiration duration,[3],35.73 ± 5.66 s
"COc1cc(C(=O)OCc2nc(C)c(C)nc2C)ccc1O [LQC-T3, (3,5,6-trimethylpyrazine-2-yl)methyl-3-methoxy-4-hydroxybenzoate]","small vessel angiogenesis of CAM model, Medicine group (X ± S)",[1],10.4 ± 2.16
